Laboratory results: article PMC5271370, “A High-Content Assay Enables the Automated Screening and Identification of Small Molecules with Specific ALDH1A1-Inhibitory Activity” (PLoS ONE, 2017)
Like-named read-outs stand apart in the source and are kept apart here.

Assays:
ALDH1A3 = details: reported ALDH target 1A3; read-out: Reported Biochemical IC50, ALDH1A3; cited from earlier work
LN-229 cells = experiment: 1,536-well high-content imaging ALDEFLUOR assay, LN-229; format: cell-based, human
Method: We next sought to test if the fully automated high-content assay could be used to detect ALDH1A1-specific inhibitors.
The ALDEFLUOR kit was purchased from […] Technologies (Vancouver, Canada; #01700). Cells (5 μL) were dispensed into black, optical quality (cyclic olefin copolymer) clear bottom, medium binding TC treated 1,536-well plates (Aurora Microplates, Whitefish MT) using a Multidrop Combi dispenser (ThermoFisher) and incubated overnight (37°C, 5% CO2, 85% RH). Media was subsequently removed by centrifuging plates upside down using a plate adaptor to collect media. A solution of BAAA substrate ([…] Technologies) and Hoechst 33342 (ThermoFisher, final concentrations of 500 nM and 0.5 nM, respectively) in ALDEFLUOR buffer ([…] Technologies #01700) was dispensed onto cells using a Multidrop Combi followed by immediate transfer (23 nL) of compound or control solutions using a Wako Pin-tool (final percentage of DMSO in the cell plates was 0.5%). Unless otherwise noted, all compounds were assayed as 16-point dilutions spanning a final concentration range of 1.4 nM to […]. […] Cells were incubated for 30 minutes or the indicated amount of time at 37°C, 5% CO2, 85% RH to allow the conversion of BAAA into BAA. Supernatant was subsequently removed by centrifugation as described above, then ALDEFLUOR buffer (3 μl) was dispensed by Multidrop Combi before imaging on an IN Cell 2200 (GE Healthcare).
The above assay was modified for an online robotic screening system. After cell plating and overnight incubation, 4 μL of media were removed using a 64-tip metal aspirator head on a Wako aspirator station, leaving 1 μL remaining in the well, followed by a 4 μL dispense of BAAA and Hoechst 33342 in ALDEFLUOR buffer, for a final concentration of 500 nM and 0.5 nM, respectively. Immediately following the dispense, 23 nL of compound or control solutions were transferred using a Wako Pin-tool. […] Plates were then immediately read on the IN Cell 2200 as described below.
For images captured on the IN Cell 2200 widefield automated microscope, a 10x 0.45 NA Plan Apo objective lens was used to capture the entire well of the 1,536-well plate using standard DAPI (390/18x, 432/48m) and FITC (475/28x, 525/48m) filter sets at 50 msec and 100 msec exposures, respectively. Images were subsequently analyzed using IN Cell Investigator v1.6.2 analysis software’s canned Multi-Target Analysis algorithm (GE Healthcare). […]
The same controls were also used for the calculation of the Z’ factor for each assay. The Z’ factor, a measure of assay quality control, was determined as previously described. […] All concentration–response curves were fitted as before and IC50 were calculated with the GraphPad Prism software.

ALDH1A2 = details: reported ALDH target 1A2; read-out: Reported Biochemical IC50, ALDH1A2; cited from earlier work

SMILES | IC50 (ALDH1A3) [µM] | IC50 (LN-229 cells; 1,000 cells/well, 500 nM substrate, 30 minutes, read-out: ALDEFLUOR IC50 LN-229) [µM] | IC50 (ALDH1A2) [µM] | IC50 (LN-229 cells; Homo sapiens, LN-229, read-out: ALDEFLUOR IC50 LN229, retest of screen hits, 11-point dose response 0.77 nM to 45.8 μM) [µM] | IC50 (LN-229 cells; read-out: ALDEFLUOR IC50 LN229, retest of screen hits, 11-point dose response 0.77 nM to 45.8 μM) [µM]
CCN(CC)c1ccc(C=O)cc1 [DEAB, 4-N,N-diethylaminobenzaldehyde] | 3 | ~3.48 | 1.2 | – | –
CC(C)N(C(=O)CCl)c1ccccc1 [Propachlor] | – | – | – | 16 | 16.1
